From US9271978B2 (Zenith Epigenetics Corp., priority 2012, dated 2016)
Blank lines part the entries; values can stand above or below the molecule they belong to.

How the values were obtained:
[1] = target: T1, Brd4 bromodomain 1 (BRD4(1)) (Homo sapiens, UniProt O60885); assay: Inhibition of tetra-acetylated histone H4 binding to Brd4 bromodomain 1 (TR-FRET); parameters: key: Active: Compounds with an IC50 value less than 30 μM were deemed to be active.; Not Active: Compounds with an IC50 value less than 30 μM were deemed to be active; conditions: tetra-acetylated histone H4 peptide, active = IC50 <30 μM
T1 construct: Illustrative results with the first bromodomain of Brd4; made in house; host or cells: E. coli BL21 (DE3)
Procedure, shortened: (§1)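 N-terminally His-tagged bromodomains (200 nM), expressed in E. coli, were incubated with biotinylated tetra-acetylated histone H4 peptide (25-50 nM), Eu-cryptate streptavidin and XL665 anti-His antibody in HEPES pH 7.4 buffer with KF, 0.2% DMSO, 2 h at room temperature. Inhibition read as decreased 665/620 nm TR-FRET; IC50 from dose-response curves.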

[2] = test system: c-myc; assay: Inhibition of c-myc expression in MV4-11 cells (mRNA, real-time PCR); assay type: cell-based; parameters: key: Active: Compounds with an IC50 value less than 30 μM were deemed to be active.; Not Active: Compounds with an IC50 value less than 30 μM were deemed to be active; conditions: Human AML MV4-11 cells, 3 h incubation
Procedure, shortened: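 MV4-11 cells (2.5×10^4) treated with compound or 0.1% DMSO for 3 h at 37 °C. c-myc mRNA measured by RT real-time PCR duplexed with cyclophilin. IC50 from dose–response curve.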

[3] = test system: human AML MV-4-11 (CRL-9591) cells; assay: Inhibition of cell proliferation in MV4-11 cells; assay type: cell-based; parameters: key: Active: Compounds with an IC50 value less than 30 μM were deemed to be active.; Not Active: Compounds with an IC50 value less than 30 μM were deemed to be active; conditions: human AML MV-4-11 cells, 72 h; active = IC50 <30 μM
Procedure, shortened: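 Exponentially growing MV-4-11 cells (5×10^4/well) were treated immediately with two-fold dilutions of compound from 30 μM to 0.2 μM, in triplicate, for 72 h at 37° C, 5% CO2. Viability was measured by MTS absorbance at 490 nm after 3–4 h. Proliferation relative to DMSO after blank correction gave IC50.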

[4] = test system: hIL-6 mRNA; assay: Inhibition of hIL-6 mRNA transcription in U937 cells; assay type: cell-based, human; parameters: key: Active: Compounds with an IC50 value less than 30 μM were deemed to be active.; Not Active: Compounds with an IC50 value less than 30 μM were deemed to be active; conditions: LPS stimulation, active = IC50 <30 μM
Procedure, shortened: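 U937 cells differentiated 3 days with 60 ng/mL PMA, pretreated 1 h with compound, then stimulated with 1 ug/mL E. coli LPS for 3 h at 37° C. hIL-6 mRNA quantified by one-step qRT-PCR, Ct normalized to internal control, expressed as fold induction relative to control.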

[5] = test system: ApoA-I mRNA; assay: Up-regulation of hApoA-1 mRNA transcription in Huh7 cells; assay type: cell-based, human; parameters: key: Active: Compounds with an EC170 value less than 30 μM were deemed to be active; conditions: 48 h treatment, ApoA-I mRNA by real-time PCR, Active = EC170 less than 30 μM
Procedure, shortened: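 Huh7 cells treated with compound for 48 h. ApoA-I mRNA was then quantified in captured mRNA by one-step real-time RT-PCR. Fold induction calculated from Ct values relative to the matching DMSO control; EC170 is the concentration for 170% of control expression.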

[6] = target: T2, second bromodomain of Brd2 (BRD2(2)) (Homo sapiens, UniProt P25440); assay: Inhibition of tetra-acetylated histone H4 binding to Brd2 bromodomain 2 (TR-FRET); parameters: key: Active: Compounds with an IC50 value less than 30 μM were deemed to be active.; Not Active: Compounds with an IC50 value less than 30 μM were deemed to be active; conditions: tetra-acetylated histone H4 peptide, active = IC50 <30 μM
T2 construct: made in house; host or cells: E. coli BL21 (DE3)
T2 sequence (P25440 344-453 limits assumed): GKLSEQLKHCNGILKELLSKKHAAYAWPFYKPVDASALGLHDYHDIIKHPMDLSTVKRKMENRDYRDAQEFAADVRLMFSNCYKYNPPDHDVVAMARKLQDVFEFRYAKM
Procedure, shortened: as §1

SMILES: CNc1cc(-c2c(C)noc2C)cn(Cc2ccccc2)c1=O [Example 75, 1-Benzyl-5-(3,5-dimethylisoxazol-4-yl)-3-(methylamino)pyridin-2(1H)-one]
- FRET activity (IC50 <30 μM) BRD4(1) [1]: Active
- c-myc activity (IC50 <30 μM) [2]: Active
- Cell Proliferation activity (IC50 <30 μM) [3]: Active
- IL-6 activity (IC50 <30 μM) [4]: Active
- ApoA-1 activity (EC170 <30 μM) [5]: Active
- FRET activity (IC50 <30 μM) BRD2(2) [6]: Active

SMILES: COc1cc(-c2ccc(=O)n(Cc3ccc(NC(C)=O)cc3)n2)cc(OC)c1OC [Example 82, N-(4-((6-Oxo-3-(3,4,5-trimethoxyphenyl)pyridazin-1(6H)-yl)methyl)phenyl)acetamide]
- FRET activity (IC50 <30 μM) BRD4(1) [1]: Active
- c-myc activity (IC50 <30 μM) [2]: Not Active
- Cell Proliferation activity (IC50 <30 μM) [3]: Not Active
- IL-6 activity (IC50 <30 μM) [4]: Active
- ApoA-1 activity (EC170 <30 μM) [5]: Active
- FRET activity (IC50 <30 μM) BRD2(2) [6]: Active

SMILES: COc1cc(-c2ccc(=O)n(Cc3ccccc3)n2)ccc1O [Example 83, 2-Benzyl-6-(4-hydroxy-3-methoxyphenyl)pyridazin-3(2H)-one]
- FRET activity (IC50 <30 μM) BRD4(1) [1]: Active
- c-myc activity (IC50 <30 μM) [2]: Not Active
- Cell Proliferation activity (IC50 <30 μM) [3]: Active
- IL-6 activity (IC50 <30 μM) [4]: Active
- ApoA-1 activity (EC170 <30 μM) [5]: Active
- FRET activity (IC50 <30 μM) BRD2(2) [6]: Active

SMILES: COc1ccc(Nc2ccc(=O)n(Cc3ccccc3)n2)nc1OC [Example 99, 2-Benzyl-6-((5,6-dimethoxypyridin-2-yl)amino)pyridazin-3(2H)-one]
- FRET activity (IC50 <30 μM) BRD4(1) [1]: Active
- c-myc activity (IC50 <30 μM) [2]: Active
- Cell Proliferation activity (IC50 <30 μM) [3]: Not Active
- IL-6 activity (IC50 <30 μM) [4]: Active
- ApoA-1 activity (EC170 <30 μM) [5]: Active
- FRET activity (IC50 <30 μM) BRD2(2) [6]: Active

SMILES: COc1ccc(Cn2nc(-c3cc(OC)c(OC)c(OC)c3)ccc2=O)cc1 [Example 117, 2-(4-Methoxybenzyl)-6-(3,4,5-trimethoxyphenyl)pyridazin-3(2H)-one]
- FRET activity (IC50 <30 μM) BRD4(1) [1]: Active
- c-myc activity (IC50 <30 μM) [2]: Not Active
- Cell Proliferation activity (IC50 <30 μM) [3]: Not Active
- IL-6 activity (IC50 <30 μM) [4]: Active
- ApoA-1 activity (EC170 <30 μM) [5]: Active
- FRET activity (IC50 <30 μM) BRD2(2) [6]: Active

SMILES: COc1cc(-c2ccc(=O)n(Cc3ccccc3C#N)n2)cc(OC)c1OC [Example 118, 2-((6-Oxo-3-(3,4,5-trimethoxyphenyl)pyridazin-1(6H)-yl)methyl)benzonitrile]
- FRET activity (IC50 <30 μM) BRD4(1) [1]: Active
- c-myc activity (IC50 <30 μM) [2]: Not Active
- Cell Proliferation activity (IC50 <30 μM) [3]: Active
- IL-6 activity (IC50 <30 μM) [4]: Active
- ApoA-1 activity (EC170 <30 μM) [5]: Active
- FRET activity (IC50 <30 μM) BRD2(2) [6]: Active

SMILES: COc1cccc(Cn2nc(-c3cc(OC)c(OC)c(OC)c3)ccc2=O)c1 [Example 119, 2-(3-Methoxybenzyl)-6-(3,4,5-trimethoxyphenyl)pyridazin-3(2H)-one]
- FRET activity (IC50 <30 μM) BRD4(1) [1]: Active
- c-myc activity (IC50 <30 μM) [2]: Not Active
- Cell Proliferation activity (IC50 <30 μM) [3]: Active
- IL-6 activity (IC50 <30 μM) [4]: Active
- ApoA-1 activity (EC170 <30 μM) [5]: Active
- FRET activity (IC50 <30 μM) BRD2(2) [6]: Active

SMILES: Cc1noc(C)c1-c1ccc(=O)n(Cc2ccc3[nH]cnc3c2)c1 [Example 146, 1-((1H-benzo[d]imidazol-5-yl)methyl)-5-(3,5-dimethylisoxazol-4-yl)pyridin-2(1H)-one]
- FRET activity (IC50 <30 μM) BRD4(1) [1]: Active
- c-myc activity (IC50 <30 μM) [2]: Active
- Cell Proliferation activity (IC50 <30 μM) [3]: Not Active
- IL-6 activity (IC50 <30 μM) [4]: Active
- ApoA-1 activity (EC170 <30 μM) [5]: Active
- FRET activity (IC50 <30 μM) BRD2(2) [6]: Active

SMILES: Cc1noc(C)c1-c1ccc(=O)n(Cc2ccc3[nH]ncc3c2)c1 [Example 148, 1-((1H-Indazol-5-yl)methyl)-5-(3,5-dimethylisoxazol-4-yl)pyridin-2(1H)-one]
- FRET activity (IC50 <30 μM) BRD4(1) [1]: Active
- c-myc activity (IC50 <30 μM) [2]: Active
- Cell Proliferation activity (IC50 <30 μM) [3]: Active
- IL-6 activity (IC50 <30 μM) [4]: Active
- ApoA-1 activity (EC170 <30 μM) [5]: Active
- FRET activity (IC50 <30 μM) BRD2(2) [6]: Active

Now from value to molecule, other results behind:

- FRET activity (IC50 <30 μM) BRD4(1) [1]: Active
- c-myc activity (IC50 <30 μM) [2]: Active
- Cell Proliferation activity (IC50 <30 μM) [3]: Active
- IL-6 activity (IC50 <30 μM) [4]: Active
- FRET activity (IC50 <30 μM) BRD2(2) [6]: Active
SMILES: Cc1noc(C)c1-c1ccc(=O)n(C(C)c2cccc(F)c2)c1 (stereo not drawn) [Example 104, 5-(3,5-Dimethylisoxazol-4-yl)-1-(1-(3-fluorophenyl)ethyl)pyridin-2(1H)-one]
- ApoA-1 activity (EC170 <30 μM) [5]: Active

- FRET activity (IC50 <30 μM) BRD4(1) [1]: Active
- c-myc activity (IC50 <30 μM) [2]: Active
- Cell Proliferation activity (IC50 <30 μM) [3]: Active
- IL-6 activity (IC50 <30 μM) [4]: Active
- FRET activity (IC50 <30 μM) BRD2(2) [6]: Active
SMILES: Cc1noc(C)c1-c1ccc(=O)n(C(C)c2ccc(Cl)cc2)c1 (stereo not drawn) [Example 105, 1-(1-(4-Chlorophenyl)ethyl)-5-(3,5-dimethylisoxazol-4-yl)pyridin-2(1H)-one]
- ApoA-1 activity (EC170 <30 μM) [5]: Active

- FRET activity (IC50 <30 μM) BRD4(1) [1]: Active
- c-myc activity (IC50 <30 μM) [2]: Active
- Cell Proliferation activity (IC50 <30 μM) [3]: Active
- IL-6 activity (IC50 <30 μM) [4]: Active
- FRET activity (IC50 <30 μM) BRD2(2) [6]: Active
SMILES: Cc1noc(C)c1-c1ccc(=O)n([C@H](C)c2ccccc2)n1 [Example 108, (R)-6-(3,5-Dimethylisoxazol-4-yl)-2-(1-phenylethyl)pyridazin-3(2H)-one]
- ApoA-1 activity (EC170 <30 μM) [5]: Active

- FRET activity (IC50 <30 μM) BRD4(1) [1]: Active
- c-myc activity (IC50 <30 μM) [2]: Active
- Cell Proliferation activity (IC50 <30 μM) [3]: Active
- IL-6 activity (IC50 <30 μM) [4]: Active
- FRET activity (IC50 <30 μM) BRD2(2) [6]: Active
SMILES: Cc1noc(C)c1-c1ccc(=O)n([C@@H](C)c2ccccc2)n1 [Example 109, (S)-6-(3,5-Dimethylisoxazol-4-yl)-2-(1-phenylethyl)pyridazin-3(2H)-one]
- ApoA-1 activity (EC170 <30 μM) [5]: Active

- FRET activity (IC50 <30 μM) BRD4(1) [1]: Active
- c-myc activity (IC50 <30 μM) [2]: Active
- Cell Proliferation activity (IC50 <30 μM) [3]: Active
- IL-6 activity (IC50 <30 μM) [4]: Active
- FRET activity (IC50 <30 μM) BRD2(2) [6]: Active
SMILES: Cc1noc(C)c1-c1ccc(=O)n(C(C)c2ccccc2)c1 (stereo not drawn) [Example 125, 5-(3,5-Dimethylisoxazol-4-yl)-1-(1-phenylethyl)pyridin-2(1H)-one]
- ApoA-1 activity (EC170 <30 μM) [5]: Active

- FRET activity (IC50 <30 μM) BRD4(1) [1]: Active
- c-myc activity (IC50 <30 μM) [2]: Active
- Cell Proliferation activity (IC50 <30 μM) [3]: Active
- IL-6 activity (IC50 <30 μM) [4]: Active
- FRET activity (IC50 <30 μM) BRD2(2) [6]: Active
SMILES: Cc1noc(C)c1-c1ccc(=O)n(Cc2ccc(F)cc2)c1 [Example 132, 5-(3,5-Dimethylisoxazol-4-yl)-1-(4-fluorobenzyl)pyridin-2(1H)-one]
- ApoA-1 activity (EC170 <30 μM) [5]: Active

- FRET activity (IC50 <30 μM) BRD4(1) [1]: Active
- c-myc activity (IC50 <30 μM) [2]: Active
- Cell Proliferation activity (IC50 <30 μM) [3]: Active
- IL-6 activity (IC50 <30 μM) [4]: Active
- FRET activity (IC50 <30 μM) BRD2(2) [6]: Active
SMILES: Cc1noc(C)c1-c1ccc(=O)n(Cc2ccc(F)c(Cl)c2)c1 [Example 147, 1-(3-Chloro-4-fluorobenzyl)-5-(3,5-dimethylisoxazol-4-yl)pyridin-2(1H)-one]
- ApoA-1 activity (EC170 <30 μM) [5]: Active

- FRET activity (IC50 <30 μM) BRD4(1) [1]: Active
- c-myc activity (IC50 <30 μM) [2]: Active
- Cell Proliferation activity (IC50 <30 μM) [3]: Active
- IL-6 activity (IC50 <30 μM) [4]: Active
- FRET activity (IC50 <30 μM) BRD2(2) [6]: Active
SMILES: Cc1noc(C)c1-c1ccc(=O)n(Cc2cccc3[nH]ccc23)c1 [Example 149, 1-((1H-Indol-4-yl)methyl)-5-(3,5-dimethylisoxazol-4-yl)pyridin-2(1H)-one]
- ApoA-1 activity (EC170 <30 μM) [5]: Active
